Laboratory results: US10064865B2, “Composition comprising phosphodiesterase type 5 inhibitor for inhibiting apoptosis of nerve cells” (ARIBIO INC., priority 2012, dated 2018)

Experiments:
[1] = Dissolution of test material in saline; type: physicochemical; settings: mirodenafil 2HCl
Protocol: The mirodenafil (mirodenafil 2HCl; SK Chemical Life Science Business, KR) was used in this experiment. […] Mirodenafil was stored at 4° C. in a refrigerator to protect from light and humidity until used. Three different dosages, 0.5, 1 and 2 mg/kg of mirodenafil were directly dissolved in saline and subcutaneously administered in a volume of 1 ml/kg on the dorsal back skins, once a day for 28 days from 24 hrs after stabilization periods from operation. In saline and neuron apoptosis control rats, equal volumes of saline as vehicle were administered, instead of mirodenafil, respectively.
(§1) The mirodenafil (mirodenafil 2HCl; SK Chemical Life Science Business, KR) was used in this experiment. […] Mirodenafil was stored at 4° C. in a refrigerator to protect from light and humidity until used. Mirodenafil were directly dissolved in saline as 1 mg/ml concentrations, and subcutaneously administered in a volume of 1 ml/kg on the dorsal back skins from 24, 72 and 168 hrs after neuron apoptosis, once a day for 14 days, respectively. In saline and neuron apoptosis control rats, equal volumes of saline as vehicle were administered, instead of mirodenafil from 24 hrs after neuron apoptosis for 20 days, respectively.

[2] = system: neuron apoptosis-operated rats; experiment: Example 2 forelimb placing test; type: in vivo, Sprague-Dawley (SD) rats
Protocol: Sensorimotor function was evaluated by use of limb placing (de Ryck M et al., Stroke. 20:1383-90(1989)) and body swing (Borlongan and Sanberg, J Neurosci. 15:5372-8(1995)) tests. These tests were performed at 1 and 28 days after neuron apoptosis. The investigator performing the surgery and behavioral assessments was blinded to treatment assignment.
Limb placing test: Forelimb and hindlimb placement were assessed independently. For the forelimb placing test, the rats were held by their torso with their forepaws hanging free and moved slowly toward the edge of a tabletop, stopping short of touching the vibrissae (for vision-induced placing), touching the vibrissae (for vibrissae-induced placing), making light contact with the front of the forepaw to the edge of the tabletop (for tactile-induced placing), and pressing the forepaws to the edge of the table with increased pressure (for proprioceptive-induced placing). Hindlimb placing was conducted in the same manner as above but with tactile and proprioceptive stimulation applied to the front/top of each hindlimb. Each limb for placing in response to visual, vibrissae, tactile, and proprioceptive stimulation are scored in the following manner: normal performance=0 points; performance with unilateral limb=1 point; performance with a delay (2 seconds) and/or incomplete=2 point; no performance=3 points. A total of 12 points in forelimb placing test and 6 points in hindlimb placing test means maximal neurological deficit, and 0 points means normal performance.
All data were expressed as mean±standard deviation (S.D.) of ten rats. Multiple comparison tests for different dose groups were conducted. Variance homogeneity was examined using the Levene test (Levene A, Clin Otalary, 1981; 6:145-51). […] In addition, the percent changes as compared with neuron apoptosis control and mirodenafil treated rats were calculated to help the understanding of the efficacy of test substances as follow Equation 6 and 7. […]

[3] = system: neuron apoptosis-operated rats, ipsilateral cerebral cortex; experiment: Example 2 (timing of administration) histopathology: cerebral atrophy and degenerative neurons; type: in vivo, Sprague-Dawley (SD) rats; settings: for Cerebral atrophic % / Numbers of neurons: Degenerative cells: 1 mg/kg s.c. once a day for 14 days, 29 days after neuron apoptosis
Protocol: Total one hundred healthy male Sprague-Dawley (SD) rats (6-wk old upon receipt; Japan; Body weight ranged in 170-190 g upon receipt) were used after acclimatization for 16 days. Animals were allocated four per polycarbonate cage in a temperature (20-25° C.) and humidity (50-55%) controlled room. Light:dark cycle was 12 hr:12 hr, and standard rodent chow (Samyang, Korea) and water were supplied free to access. All animals were treated in accordance with the Guidelines for Care and Use of Laboratory Animals of Daegu Haany University based on the Guide for the Care and Use of Laboratory Animals by Institute of Laboratory Animal Resources, Commission on Life Science, National Research Council, USA on 1996, Washington D.C. Experimental groups are as follows:
as §1
The induction of neuron apoptosis was carried out by damaging the right hemisphere of the brain of animals. Specifically, animals were anesthetized with 2 or 3% isoflurane in the mixture of 70% N2O and 28.5% O2, and were maintained with 1 to 1.5% isoflurane in the mixture of 70% N2O and 28.5% O2. After that the temporalis muscle was bisected and reflected through an incision made midway between the eye and the eardrum canal. The proximal MCA was exposed through a subtemporal craniectomy by microdental drills without removing the zygomatic arch and without transecting the facial nerve. […] Mortality was less than 5%. For sham control, all procedures were performed in the same way, with the exception of the occlusion of the MCA.
At 29 days after neuron apoptosis, rats were sacrificed under deep anesthesia with 3% isoflurane inhalation. Brains were removed, washed in chilled phosphate buffered saline (PBS, pH7.4), and dissected into 6 coronal sections (2 mm thickness) ranging from 2 to 14 mm from the frontal brain pole on the rat brain stainless steel coronal matrix (Harvard, USA). Prepared last 6th cerebral parts were directly fixed in 10% neural buffered formalin. Then, embedded in paraffin, cross-sectioned, and stained with hematoxylin and eosin (H&E) for observing general histopathology of cerebral cortex. […] The histopathologist was blindes to group distribution when this analysis was made.
Histomorphometry: The atrophic % of ipsilateral cerebral cortex was calculated as following Equation 4 as compared with intact contralateral hemisphere in prepared peri-infarct/defect histological specimens. In addition, the numbers of degenerative neurons were also measured in the restricted view fields of cerebral cortex, mm2, respectively. Cerebral atrophy formation=(Contralateral cerebral cortex area−ipsilateral cerebral cortex area)/Contralateral cerebral cortex area×100(%) [EQUATION 4]
All data were expressed as mean±standard deviation (S.D.) of ten rats. Multiple comparison tests for different dose groups were conducted. Variance homogeneity was examined using the Levene test (Levene A, Clin Otalary, 1981; 6:145-51). […] Statistical analyses were conducted using SPSS for Windows (Release 14K, SPSS Inc., USA; Ludbrook, Clin Exp Pharmacol Physiol, 1997; 24:294-6). In addition, the percent changes as compared with neuron apoptosis control and mirodenafil treated rats were calculated to help the understanding of the efficacy of test substances as follow Equation 6 and 7. […]

[4] = 1 mg/kg from 24 hrs after surgery
[5] = 1 mg/kg from 72 hrs after surgery
[6] = 1 mg/kg from 168 hrs after surgery

CCCOc1ccc(S(=O)(=O)N2CCN(CCO)CC2)cc1-c1nc2c(CCC)cn(CC)c2c(=O)[nH]1 [Mirodenafil, mirodenafil]
solubility in saline [1]: well dissolved in saline | forelimb placing test scores at 28 days, change as compared with neuron apoptosis control [2, 4]: −57.41% | forelimb placing test scores at 28 days, change as compared with neuron apoptosis control [2, 5]: −29.63% | forelimb placing test scores at 28 days, change as compared with neuron apoptosis control [2, 6]: −11.11% | ipsilateral cerebral atrophic % at 29 days, change as compared with neuron apoptosis control [3, 4]: −60.71% | numbers of degenerative neurons at sacrifice, change as compared with neuron apoptosis control [3, 4]: −70.64% | ipsilateral cerebral atrophic % at 29 days, change as compared with neuron apoptosis control [3, 5]: −26.37% | numbers of degenerative neurons at sacrifice, change as compared with neuron apoptosis control [3, 5]: −45.90% | ipsilateral cerebral atrophic % at 29 days, change as compared with neuron apoptosis control [3, 6]: −12.31% | numbers of degenerative neurons at sacrifice, change as compared with neuron apoptosis control [3, 6]: −15.40% | Cerebral atrophic % ([3]; start 24 hrs after operation): 21.90 ± 3.13^ab % | Numbers of neurons: Degenerative cells ([3]; start 24 hrs after operation): 22.80 ± 3.69^ab cells/mm^2 of cerebral cortex | Cerebral atrophic % ([3]; start 72 hrs after operation): 41.03 ± 5.05^ab % | Numbers of neurons: Degenerative cells ([3]; start 72 hrs after operation): 42.01 ± 6.14^ab cells/mm^2 of cerebral cortex | Cerebral atrophic % ([3]; start 168 hrs after operation): 48.87 ± 3.25^ac % | Numbers of neurons: Degenerative cells ([3]; start 168 hrs after operation): 65.70 ± 7.64^ac cells/mm^2 of cerebral cortex
